According to patent publication US11292807B2 (OCEANS LTD., priority 2015, dated 2022):
Where two headings read alike, the source gives them in different places.

Experiments:
PC3 = experiment: CIMA assay, cell viability, PC3; details: for Fold change in viability AVG: PC3
MDA-MB [1] = experiment: cells; details: Homo sapiens, read-out: Average cell viability, MDA-MB
[2] = system: U373 (glioblastoma-astrocytoma); experiment: CIMA assay, cell viability, U373; details: for Fold change in viability AVG: U373
Procedure: (§1) Stock solutions of the extracts were prepared in dimethylsulfoxide (DMSO) at 10 mg/mL and stored in 200 μl aliquots at −20° C. until analysis. This preparation ensured that the DMSO delivered to cells in culture never exceeded 1%.
(§2) Prepared extracts were assessed following chronic exposure conditions in which cells were seeded at 2×10^3 cells/well (96 well-plate) and incubated with test compounds for 72 h. Each compound was evaluated over a range of concentrations (0, 10, 25, 50 or 100 μg/ml). Cell proliferation was initially assessed using a standard colorimetric indicator of metabolic activity (CIMA) assay. In this assay, tetrazole reduction was evaluated as a measure of metabolic function that evaluates mitochondrial activity to determine the extent of cell proliferation within a culture. This assay is based on the reduction of yellow tetrazolium salt to purple formazan by mitochondrial reductases enzyme in viable cells, resulting in a color changed that confers a change in absorbance.

MDA-MB [3] = details: MDA-MB
[4] = system: CCD1079SK (fibroblast, noncancerous but proliferating); experiment: CIMA assay, cell viability, CCD1079SK; details: CCD
[5] = CIMA assay, cell viability, CCD1079SK; details: human, Average cell viability, CCD
A549 (lung carcinoma) = experiment: CIMA assay (colorimetric indicator of metabolic activity), cell viability, A549; details: for Fold change in viability AVG: A549
[6] = system: THP-1 (acute monocytic leukemia); experiment: CIMA assay, cell viability, THP-1; details: for Fold change in viability AVG: THP-1
[7] = system: SKOV3 (ovarian adenocarcinoma); experiment: CIMA assay, cell viability, SKOV3; details: for Fold change in viability AVG: SKOV
Procedure: as §1, §2

Structure (SMILES): CC/C=C\C/C=C\C/C=C\C/C=C\CCC(=O)OC(COC(=O)CCCCCCC/C=C\C/C=C\C/C=C\CC)COC1OC(CO)C(O)C(O)C1O (stereo not shown) [Compound 14, MGDG C18:3/C16:4]
- viability at 1 µg/mL (PC3; Homo sapiens, PC-3, read-out: Average cell viability, PC3, 1 ug/mL): 103%
- viability at 10 µg/mL (PC3; Homo sapiens, PC-3, read-out: Average cell viability, PC3, 10 ug/mL): 98%
- viability at 50 µg/mL (PC3; Homo sapiens, PC-3, read-out: Average cell viability, PC3, 50 ug/mL): 66%
- viability at 100 µg/mL (PC3; Homo sapiens, PC-3, read-out: Average cell viability, PC3, 100 ug/mL): 12%
- PC3 AVG (PC3; PC3, sample at 1 ug/mL): 1.07
- PC3 AVG (PC3; PC3, sample at 10 ug/mL): 1.01
- PC3 AVG (PC3; PC3, sample at 50 ug/mL): 0.68
- PC3 AVG (PC3; PC3, sample at 100 ug/mL): 0.13
- Fold change in viability AVG (PC3; 1 ug/mL): 1.07
- Fold change in viability AVG (PC3; 10 ug/mL): 1.01
- Fold change in viability AVG (PC3; 50 ug/mL): 0.68
- Fold change in viability AVG (PC3; 100 ug/mL): 0.13
- viability at 1 µg/mL (MDA-MB [1]; 1 ug/mL): 104%
- viability at 10 µg/mL (MDA-MB [1]; 10 ug/mL): 102%
- viability at 50 µg/mL (MDA-MB [1]; 50 ug/mL): 68%
- viability at 100 µg/mL (MDA-MB [1]; 100 ug/mL): 18%
- viability at 1 µg/mL ([2]; Homo sapiens, U373 MG, read-out: Average cell viability, U373, 1 ug/mL): 109%
- viability at 10 µg/mL ([2]; Homo sapiens, U373 MG, read-out: Average cell viability, U373, 10 ug/mL): 100%
- viability at 50 µg/mL ([2]; Homo sapiens, U373 MG, read-out: Average cell viability, U373, 50 ug/mL): 41%
- viability at 100 µg/mL ([2]; Homo sapiens, U373 MG, read-out: Average cell viability, U373, 100 ug/mL): 9%
- U373 AVG ([2]; U373, sample at 1 ug/mL): 1.10
- U373 AVG ([2]; U373, sample at 10 ug/mL): 1.02
- U373 AVG ([2]; U373, sample at 50 ug/mL): 0.42
- U373 AVG ([2]; U373, sample at 100 ug/mL): 0.09
- Fold change in viability AVG ([2]; 1 ug/mL): 1.10
- Fold change in viability AVG ([2]; 10 ug/mL): 1.02
- Fold change in viability AVG ([2]; 50 ug/mL): 0.42
- Fold change in viability AVG ([2]; 100 ug/mL): 0.09
- MDA-MB AVG (MDA-MB [3]; sample at 1 ug/mL): 1.13
- MDA-MB AVG (MDA-MB [3]; sample at 10 ug/mL): 1.11
- MDA-MB AVG (MDA-MB [3]; sample at 50 ug/mL): 0.74
- MDA-MB AVG (MDA-MB [3]; sample at 100 ug/mL): 0.20
- Fold change in viability AVG (MDA-MB [3]; 1 ug/mL): 1.13
- Fold change in viability AVG (MDA-MB [3]; 10 ug/mL): 1.11
- Fold change in viability AVG (MDA-MB [3]; 50 ug/mL): 0.74
- Fold change in viability AVG (MDA-MB [3]; 100 ug/mL): 0.20
- Fold change in viability AVG ([4]; 1 ug/mL): 1.12
- Fold change in viability AVG ([4]; 10 ug/mL): 1.05
- Fold change in viability AVG ([4]; 50 ug/mL): 0.54
- Fold change in viability AVG ([4]; 100 ug/mL): 0.21
- viability at 72 h, 1 ug/mL ([5]; CCD1079SK fibroblast cells (noncancerous, proliferating), 1 ug/mL): 102%
- viability at 72 h, 10 ug/mL ([5]; CCD1079SK fibroblast cells (noncancerous, proliferating), 10 ug/mL): 96%
- viability at 72 h, 50 ug/mL ([5]; CCD1079SK fibroblasts (noncancerous, proliferating), 50 ug/mL): 49%
- viability at 72 h, 100 ug/mL ([5]; CCD1079SK fibroblasts (noncancerous, proliferating), 100 ug/mL): 19%
- A549 AVG (A549 (lung carcinoma); A549, sample at 1 ug/mL): 1.15
- A549 AVG (A549 (lung carcinoma); A549, sample at 10 ug/mL): 1.18
- A549 AVG (A549 (lung carcinoma); A549, sample at 50 ug/mL): 1.03
- A549 AVG (A549 (lung carcinoma); A549, sample at 100 ug/mL): 0.86
- Fold change in viability AVG (A549 (lung carcinoma); 1 ug/mL): 1.15
- Fold change in viability AVG (A549 (lung carcinoma); 10 ug/mL): 1.18
- Fold change in viability AVG (A549 (lung carcinoma); 50 ug/mL): 1.03
- Fold change in viability AVG (A549 (lung carcinoma); 100 ug/mL): 0.86
- viability at 1 µg/mL (A549 (lung carcinoma); Homo sapiens, A549, read-out: Average cell viability, A549, 1 ug/mL): 99%
- viability at 10 µg/mL (A549 (lung carcinoma); Homo sapiens, A549, read-out: Average cell viability, A549, 10 ug/mL): 101%
- viability at 50 µg/mL (A549 (lung carcinoma); Homo sapiens, A549, read-out: Average cell viability, A549, 50 ug/mL): 88%
- viability at 100 µg/mL (A549 (lung carcinoma); Homo sapiens, A549, read-out: Average cell viability, A549, 100 ug/mL): 74%
- viability at 1 µg/mL ([6]; Homo sapiens, THP-1, read-out: Average cell viability, THP-1, 1 ug/mL): 99%
- viability at 10 µg/mL ([6]; Homo sapiens, THP-1, read-out: Average cell viability, THP-1, 10 ug/mL): 100%
- viability at 50 µg/mL ([6]; Homo sapiens, THP-1, read-out: Average cell viability, THP-1, 50 ug/mL): 62%
- viability at 100 µg/mL ([6]; Homo sapiens, THP-1, read-out: Average cell viability, THP-1, 100 ug/mL): 51%
- THP-1 AVG ([6]; THP-1, sample at 1 ug/mL): 1.13
- THP-1 AVG ([6]; THP-1, sample at 10 ug/mL): 1.14
- THP-1 AVG ([6]; THP-1, sample at 50 ug/mL): 0.70
- THP-1 AVG ([6]; THP-1, sample at 100 ug/mL): 0.58
- Fold change in viability AVG ([6]; 1 ug/mL): 1.12
- Fold change in viability AVG ([6]; 10 ug/mL): 1.14
- Fold change in viability AVG ([6]; 50 ug/mL): 0.70
- Fold change in viability AVG ([6]; 100 ug/mL): 0.58
- viability at 1 µg/mL ([7]; Homo sapiens, SK-OV-3, read-out: Average cell viability, SKOV, 1 ug/mL): 109%
- viability at 10 µg/mL ([7]; Homo sapiens, SK-OV-3, read-out: Average cell viability, SKOV, 10 ug/mL): 97%
- viability at 50 µg/mL ([7]; Homo sapiens, SK-OV-3, read-out: Average cell viability, SKOV, 50 ug/mL): 92%
- viability at 100 µg/mL ([7]; Homo sapiens, SK-OV-3, read-out: Average cell viability, SKOV, 100 ug/mL): 67%
- Fold change in viability AVG ([7]; 1 ug/mL): 1.17
- Fold change in viability AVG ([7]; 10 ug/mL): 1.05
- Fold change in viability AVG ([7]; 50 ug/mL): 0.89
- Fold change in viability AVG ([7]; 100 ug/mL): 0.72
